Test results taken from patent US20250144250A1, “PH-SENSITIVE FLUOROPHORES” (The General Hospital Corporation, priority 2022, published 2025).

How the values were obtained:
ID8 cells [1] = test: Subcellular localization (co-localization with MitoTracker, LysoTracker, NucBlue); format: cell-based, murine; conditions: 10 μM, 30 min incubation
Procedure: FIG. 3 Subcellular localization of pH sensing NIR fluorophores: (a) Subcellular localization of each probe (10 μM) in ID8 cells was determined after 30 min of incubation at 37° C. Nuclei, mitochondria, and lysosomes were stained with NucBlue, MitoTracker Green, or LysoTracker Red, respectively. Representative fluorescence images of cells. Scale bar=20 μm. (b) Co-localization index of each probe with MitoTracker Green or LysoTracker Red. The index was calculated by dividing the area of overlap between pH probe and MitoTracker or LysoTracker by the total area of MitoTracker or LysoTracker, respectively. The co-localization index was determined in 5-6 photographic areas (70×92 μm^2 each) for each probe. *P<0.05 by two-way ANOVA followed by Tukey's multiple comparisons test. Error bars show means±s.d.
Live-cell labeling and in vitro imaging: Murine ovarian cancer cells (ID8 cells) were obtained from Dr. Wang's lab in the Vincent Center for Reproductive Biology at Massachusetts General Hospital (MGH). Cells were cultured and maintained in Dulbecco's modified Eagle's medium (DMEM) supplemented with 4% FBS (Gibco, Grand Island, NY), 1% insulin-transferrin-selenium (Sigma-Aldrich), and 1% penicillin-streptomycin (Gibco). Cells were plated in a T-75 culture flask until 70% confluency before dividing for the next passage. For fluorophore binding affinity, ID8 cells were incubated at a density of 20,000 cells/well in a 24-well plate in a humidified incubator at 37° C. under 5% CO2 in the air. Cells were then incubated at 37° C. for 30 min in the presence of 0.2 μM of PH03 or PH08 and phenol red-free Hank's balanced salt solution (HBSS) with or without 10% FBS. […] Image acquisition and analysis were performed using IPLab software (Scanalytics, Fairfax, VA), and the fluorescent intensity of each cell was measured using ImageJ (National Institutes of Health, Bethesda, MD). The outline of each cell was determined on a phase-contrast image to specify the region of interest (ROI) and superimposed on a fluorescence image for measurements. All NIR fluorescence images for each fluorophore were normalized identically for all conditions during an experiment. […]
Subcellular distribution of pH sensing NIR fluorophores: To investigate the fate of the NIR fluorophores after uptake by cells, we performed in vitro live-cell imaging and evaluated subcellular localization of the NIR fluorophores in cultured ID8 ovarian cancer cells. PH03 and PH08 were incubated with ID8 cells for 30 min followed by double staining with commercially available MitoTracker or LysoTracker Green and imaged under the house-built NIR fluorescence microscope. […]

ID8 cells [2] = test: Inhibition assay of transporters to determine entry mechanism of PH08; format: cell-based, murine; conditions: 0.2 μM PH08
Procedure: FIG. 2 Cellular uptake of pH sensing NIR fluorophores via membrane transporters: In vitro tumor cell uptake of the pH sensing NIR probes under normoxic and hypoxic conditions. Murine cancer cell line ID8 cells were incubated at normoxic or hypoxic conditions (1% O2) for 24 h at 37° C. and then incubated for 30 min in the presence of 0.1 μM NIR probes. (a) Representative fluorescence images of cells are shown. The contrast was normalized across all images. Scale bar=100 μm. (b) Quantitative time-course measurements of the fluorescence intensity in cells. *P<0.05, **P<0.01 by two-way ANOVA followed by Tukey's multiple comparisons test (Normoxia vs. Hypoxia). Error bars show mean #s.d. […] Representative fluorescence images of cells are shown. […] (d) Quantitative measurements of the fluorescence intensity in cells. *P<0.05 by two-way ANOVA followed by Tukey's multiple comparisons test. […]
The organic anion transporting polypeptides (OATPs) is known to mediate the transmembrane uptake of small molecule drugs and include structurally related fluorophores such as the clinically approved indocyanine green (ICG) and tumor-targeting IR-780. […] Next, we determined the contribution of organic cation transporters (OCTs) and organic carnitine (zwitterion) transporters (OCTNs) on the uptake of PH08, which may play roles in the transcellular movement of small organic molecules across epithelial barriers. […]

| Structure (SMILES) | overlap of fluorescence signal with LysoTracker (lysosome) (ID8 cells [1]) [%] | overlap of fluorescence signal with MitoTracker (mitochondria) (ID8 cells [1]) [%] | cellular uptake after treatment with D22, inhibitor of OCTs and OCTNs (ID8 cells [2]) | cellular uptake after treatment with bromsulphthalein (BSP), OATP inhibitor (ID8 cells [2]) |
| --- | --- | --- | --- | --- |
| CCN1/C(=C/C=C2\CCCC(/C=C/C3=[N+](CC)c4ccccc4C3(C)C)=C2c2ccccc2)C(C)(C)c2ccccc21 [PH03, 1-Ethyl-2-((E)-2-((E)-6-(2-((E)-1-ethyl-3,3-dimethylindolin-2-ylidene)ethylidene)-3,4,5,6-tetrahydro-[1,1′-biphenyl]-2-yl)vinyl)-3,3-dimethyl-3H-indol-1-ium iodide] | 34.93 | 91.47 | – | – |
| CCN1/C(=C/C=C2\CCCC(/C=C/C3=[N+](CC)c4ccccc4C3(C)C)=C2N2CCNCC2)C(C)(C)c2ccccc21 [PH08] | 71.83 | 83.05 | did not induce changes in cellular uptake | significant reduction in cellular uptake |
